± gives the uncertainty stated by the source.
Experiment: xn = mol fraction of the nth substance listed

ClC(Cl)=C(Cl)Cl + CCCCOCCO
viscosity [mPa·s], 101.33 kPa
Conditions	x1 = 0.1139	x1 = 0.2084	x1 = 0.3166	x1 = 0.4172	x1 = 0.5191	x1 = 0.6215	x1 = 0.7098	x1 = 0.8124	x1 = 0.9087
303.15 K	2.167 ± 0.055	1.954 ± 0.05	1.716 ± 0.044	1.51 ± 0.039	1.327 ± 0.035	1.17 ± 0.031	1.049 ± 0.028	0.939 ± 0.025	0.854 ± 0.023
313.15 K	1.689 ± 0.044	1.543 ± 0.04	1.381 ± 0.036	1.24 ± 0.033	1.113 ± 0.03	0.998 ± 0.027	0.913 ± 0.025	0.831 ± 0.023	0.771 ± 0.021

CCOCCOCCO + CCCN
298.15 K, 101 kPa
Conditions	viscosity [mPa·s]
x1 = 0.0118	0.374 ± 0.007
x1 = 0.0312	0.412 ± 0.007
x1 = 0.0523	0.448 ± 0.007
x1 = 0.0786	0.495 ± 0.007
x1 = 0.099	0.533 ± 0.007
x1 = 0.1259	0.59 ± 0.008
x1 = 0.1728	0.701 ± 0.008
x1 = 0.2037	0.789 ± 0.009
x1 = 0.2298	0.868 ± 0.009
x1 = 0.2646	0.986 ± 0.01
x1 = 0.3048	1.133 ± 0.01
x1 = 0.3392	1.272 ± 0.011
x1 = 0.4055	1.566 ± 0.013
x1 = 0.4419	1.745 ± 0.014
x1 = 0.4758	1.917 ± 0.015
x1 = 0.5112	2.092 ± 0.016
x1 = 0.5558	2.317 ± 0.018
x1 = 0.5903	2.488 ± 0.019
x1 = 0.633	2.695 ± 0.02
x1 = 0.6711	2.869 ± 0.022
x1 = 0.7054	3.013 ± 0.023
x1 = 0.7412	3.154 ± 0.024
x1 = 0.7802	3.297 ± 0.025
x1 = 0.8328	3.464 ± 0.026
x1 = 0.8664	3.549 ± 0.027
x1 = 0.8935	3.616 ± 0.027
x1 = 0.9187	3.674 ± 0.027
x1 = 0.9388	3.712 ± 0.028
x1 = 0.9709	3.779 ± 0.028

CCCCCCCC + CCCO
Conditions	viscosity [mPa·s]
293.15 K, 101.3 kPa, x2 = 0.2756	0.602 ± 0.011
293.15 K, 101.3 kPa, x2 = 0.4165	0.699 ± 0.012
293.15 K, 101.3 kPa, x2 = 0.5351	0.825 ± 0.014
293.15 K, 101.3 kPa, x2 = 0.6355	0.967 ± 0.016
293.15 K, 101.3 kPa, x2 = 0.6822	1.039 ± 0.017
293.15 K, 101.3 kPa, x2 = 0.7221	1.128 ± 0.018
293.15 K, 101.3 kPa, x2 = 0.7934	1.295 ± 0.02
293.15 K, 101.3 kPa, x2 = 0.8726	1.545 ± 0.024
293.15 K, 101.3 kPa, x2 = 0.9243	1.746 ± 0.027
293.15 K, 101.3 kPa, x2 = 0.9752	2.003 ± 0.03
298.15 K, 101.3 kPa, x2 = 0.114	0.511 ± 0.009
298.15 K, 101.3 kPa, x2 = 0.2756	0.561 ± 0.01
298.15 K, 101.3 kPa, x2 = 0.4165	0.645 ± 0.011
298.15 K, 101.3 kPa, x2 = 0.5351	0.752 ± 0.013
298.15 K, 101.3 kPa, x2 = 0.6356	0.875 ± 0.015
298.15 K, 101.3 kPa, x2 = 0.6823	0.939 ± 0.015
298.15 K, 101.3 kPa, x2 = 0.7221	1.016 ± 0.016
298.15 K, 101.3 kPa, x2 = 0.7934	1.162 ± 0.019
298.15 K, 101.3 kPa, x2 = 0.8726	1.403 ± 0.022
298.15 K, 101.3 kPa, x2 = 0.9243	1.554 ± 0.024
298.15 K, 101.3 kPa, x2 = 0.9752	1.79 ± 0.027
298.15 K, 101.33 kPa, x2 = 0.1018	0.535 ± 0.008
298.15 K, 101.33 kPa, x2 = 0.1778	0.558 ± 0.009
298.15 K, 101.33 kPa, x2 = 0.3151	0.617 ± 0.01
298.15 K, 101.33 kPa, x2 = 0.4271	0.696 ± 0.011
298.15 K, 101.33 kPa, x2 = 0.5512	0.809 ± 0.013
298.15 K, 101.33 kPa, x2 = 0.6801	0.987 ± 0.016
298.15 K, 101.33 kPa, x2 = 0.7955	1.227 ± 0.021
298.15 K, 101.33 kPa, x2 = 0.9677	1.824 ± 0.034
303.15 K, 101.3 kPa, x2 = 0.114	0.482 ± 0.009
303.15 K, 101.3 kPa, x2 = 0.2756	0.522 ± 0.01
303.15 K, 101.3 kPa, x2 = 0.4165	0.592 ± 0.011
303.15 K, 101.3 kPa, x2 = 0.5351	0.686 ± 0.012
303.15 K, 101.3 kPa, x2 = 0.6355	0.795 ± 0.013
303.15 K, 101.3 kPa, x2 = 0.6822	0.857 ± 0.014
303.15 K, 101.3 kPa, x2 = 0.7221	0.917 ± 0.015
303.15 K, 101.3 kPa, x2 = 0.7934	1.045 ± 0.017
303.15 K, 101.3 kPa, x2 = 0.8726	1.227 ± 0.019
303.15 K, 101.3 kPa, x2 = 0.9243	1.383 ± 0.022
303.15 K, 101.3 kPa, x2 = 0.9752	1.579 ± 0.024
308.15 K, 101.3 kPa, x2 = 0.0417	0.458 ± 0.009
308.15 K, 101.3 kPa, x2 = 0.1389	0.466 ± 0.009
308.15 K, 101.3 kPa, x2 = 0.2682	0.497 ± 0.009
308.15 K, 101.3 kPa, x2 = 0.3477	0.528 ± 0.01
308.15 K, 101.3 kPa, x2 = 0.4105	0.558 ± 0.01
308.15 K, 101.3 kPa, x2 = 0.4648	0.591 ± 0.011
308.15 K, 101.3 kPa, x2 = 0.525	0.636 ± 0.011
308.15 K, 101.3 kPa, x2 = 0.5911	0.694 ± 0.012
308.15 K, 101.3 kPa, x2 = 0.6512	0.757 ± 0.013
308.15 K, 101.3 kPa, x2 = 0.7011	0.818 ± 0.014
308.15 K, 101.3 kPa, x2 = 0.7397	0.873 ± 0.014
308.15 K, 101.3 kPa, x2 = 0.7864	0.95 ± 0.016
308.15 K, 101.3 kPa, x2 = 0.8382	1.05 ± 0.017
308.15 K, 101.3 kPa, x2 = 0.8827	1.153 ± 0.018
308.15 K, 101.3 kPa, x2 = 0.9289	1.279 ± 0.02

CCCCCO + CCCO
101.33 kPa
Conditions	viscosity [mPa·s]
293.15 K, x2 = 0.1659	3.671 ± 0.11
293.15 K, x2 = 0.3648	3.292 ± 0.095
293.15 K, x2 = 0.5097	3.015 ± 0.088
293.15 K, x2 = 0.6041	2.854 ± 0.083
293.15 K, x2 = 0.7449	2.617 ± 0.077
298.15 K, x2 = 0.2007	3.137 ± 0.091
298.15 K, x2 = 0.381	2.856 ± 0.083
298.15 K, x2 = 0.4603	2.722 ± 0.08
298.15 K, x2 = 0.6314	2.464 ± 0.073
298.15 K, x2 = 0.7745	2.261 ± 0.067
298.15 K, x2 = 0.8626	2.141 ± 0.064

CCOCCOCCO + CCCO
viscosity [mPa·s], 101 kPa
Conditions	298.15 K	308.15 K	318.15 K
x1 = 0.0114	1.94 ± 0.018	1.509 ± 0.014	1.233 ± 0.012
x1 = 0.0195	1.939 ± 0.018	1.508 ± 0.014	1.233 ± 0.011
x1 = 0.0356	1.947 ± 0.018	1.516 ± 0.014	1.248 ± 0.012
x1 = 0.0469	1.955 ± 0.018	1.517 ± 0.014	1.249 ± 0.012
x1 = 0.0557	1.95 ± 0.018	1.526 ± 0.014	1.259 ± 0.012
x1 = 0.0883	1.972 ± 0.018	1.546 ± 0.014	1.277 ± 0.012
x1 = 0.1002	1.992 ± 0.018	1.558 ± 0.015	1.281 ± 0.012
x1 = 0.136	2.017 ± 0.019	1.588 ± 0.015	1.308 ± 0.012
x1 = 0.1447	2.04 ± 0.019	1.589 ± 0.015	1.316 ± 0.012
x1 = 0.168	2.051 ± 0.019	1.617 ± 0.015	1.341 ± 0.013
x1 = 0.245	2.184 ± 0.021	1.701 ± 0.017	1.409 ± 0.014
x1 = 0.2877	2.294 ± 0.023	1.756 ± 0.018	1.456 ± 0.014
x1 = 0.3493	2.473 ± 0.025	1.868 ± 0.019	1.567 ± 0.016
x1 = 0.411	2.616 ± 0.027	1.984 ± 0.021	1.657 ± 0.017
x1 = 0.4745	2.761 ± 0.029	2.1 ± 0.022	1.752 ± 0.018
x1 = 0.536	2.889 ± 0.031	2.191 ± 0.024	1.822 ± 0.02
x1 = 0.6067	3.022 ± 0.034	2.29 ± 0.026	1.903 ± 0.021
x1 = 0.6682	3.138 ± 0.036	2.378 ± 0.028	1.978 ± 0.022
x1 = 0.7228	3.248 ± 0.038	2.453 ± 0.029	2.044 ± 0.024
x1 = 0.7879	3.383 ± 0.041	2.55 ± 0.031	2.118 ± 0.025
x1 = 0.8412	3.494 ± 0.043	2.622 ± 0.033	2.178 ± 0.027
x1 = 0.894	3.6 ± 0.046	2.695 ± 0.034	2.238 ± 0.028
x1 = 0.9378	3.694 ± 0.048	2.76 ± 0.036	2.281 ± 0.029
x1 = 0.9751	3.755 ± 0.049	2.813 ± 0.037	2.324 ± 0.03

O=[N+]([O-])c1ccccc1 + CCCO
viscosity [mPa·s], 101.33 kPa
Conditions	x1 = 0.0517	x1 = 0.1088	x1 = 0.173	x1 = 0.2456	x1 = 0.3276	x1 = 0.4224	x1 = 0.5322	x1 = 0.6613	x1 = 0.8145
298.15 K	1.815 ± 0.084	1.725 ± 0.08	1.606 ± 0.075	1.56 ± 0.073	1.511 ± 0.071	1.49 ± 0.07	1.478 ± 0.07	1.494 ± 0.071	1.55 ± 0.073
303.15 K	1.613 ± 0.076	1.558 ± 0.073	1.455 ± 0.069	1.394 ± 0.066	1.402 ± 0.067	1.363 ± 0.065	1.341 ± 0.064	1.352 ± 0.065	1.431 ± 0.068

CCCCCCCCCCCCCC + CCCOC(C)=O
298.15 K, 101.33 kPa
Conditions	viscosity [mPa·s]
x1 = 0.066	0.605 ± 0.006
x1 = 0.0941	0.632 ± 0.006
x1 = 0.1299	0.673 ± 0.007
x1 = 0.1877	0.734 ± 0.007
x1 = 0.2573	0.815 ± 0.008
x1 = 0.3129	0.88 ± 0.008
x1 = 0.4379	1.045 ± 0.01
x1 = 0.5495	1.204 ± 0.011
x1 = 0.6576	1.369 ± 0.013
x1 = 0.8073	1.631 ± 0.015
x1 = 0.8924	1.814 ± 0.016

From the CheMixHub viscosity set
